Source: patent US5972894A, “Peptides having potassium channel opener activity” (Cytran, Inc., priority 1997, dated 1999)
Residues, ends and D or L forms follow the SMILES beside them.

Assays:
Isolated Rat Heart = assay: Inotropic function of normal isolated rat heart, Langendorff perfusion
Source text: Rat heart specimens were obtained surgically from white random-bred male rats weighing approximately 250 g. The hearts were established in culture using retrograde heart perfusion according to the Langendorff method performed with a standard oxygenated (95% O2 and 5% CO2) Krebs-Henseleit solution through a glass aorta cannula. The retroperfusion pressure forces the aortic valves shut. In this way, the oxygenated solution passed only through the coronary vasculature of the heart such that both ventricles remain effectively empty. Perfusion conditions: An average constant perfusate flow rate of 15 to 25 ml/min was maintained with a constant perfusate pressure of 80 cm H2 O. Pressure Measurements: A latex balloon catheter connected with a pressure transducer ([…], Sweden) was inserted into the left ventricle of the heart to measure parameters of the inotropic function of the heart. The intraventricle pressure variation curve for the left ventricle was recorded with a polygraph. Experimental Protocol: GE and VT served as the test substances. After a 30-minute adaptation of the heart to the organ culture perfusion conditions, a set of basal (control) measurements was taken, as described in (i) through (v) below. […] See GOODMAN […] THE PHARMACOLOGICAL BASIS OF THERAPEUTICS 160 (Goodman et al., eds., 7th ed. 1985), incorporated herein by reference in its entirety for all purposes. Each dose of each respective test or reference substance was tested on four different rat hearts. The inotropic functions of each of the four rat hearts were evaluated by measuring: (i) the systolic pressure in the left ventricle ([…] diastolic pressure in the left ventricle ([…] evolving pressure (Pev. =[…]); (iv) the maximal rate of increase of left ventricle pressure (+dp/dtmax mm Hg/sec); and (v) the maximal rate of decrease of left ventricle pressure (-dp/dtmax mm Hg/sec). In addition, the heart rate (HR) of each heart was determined from the pressure variation recordings made of the left ventricle pressure.

rats = assay: Arterial blood pressure in anesthetized rats; assay type: in vivo
Method: White random-bred male rats weighing approximately 200 g were employed for this study. Each dose of each respective test or control substance was administered to a group of five rats. GE and VT were employed as test substances and were administered intravenously at doses of 0.01, 0.1, 1.0, and 10.0 mg/kg. Physiological saline (0.2 ml) served as the negative control substance. The ganglionic blocking agent, pentamine, served as the positive control substance and was tested at a dose of 5 mg/kg. Following administration of the test substance, positive control substance, or negative control substance, the arterial blood pressure of each animal was monitored.
Prior to administration of the test or control substance, each animal was anesthetized with Chloralose and then both its carotid artery and jugular vein were catheterized. The carotid catheter was connected to an electronic manometer attached to a computer recorder through an analog-to-digital converter. The mean basal level of the arterial blood pressure was determined as follows: For a period of 30 seconds, the digital signal pertaining to the arterial blood pressure was recorded at 1-second intervals. The mean value of these thirty individual measurements was then determined and recorded.
After determining the mean basal level of the arterial blood pressure, a particular dose of the test or control substance was administered in a volume of 0.2 ml of physiological saline to an animal through the jugular venous catheter. Measurements of the arterial blood pressure were then taken during the next 1.5 hours as follows: (i) during the first 5 minutes, the arterial blood pressure was being monitored continuously and mean values were calculated electronically and recorded at each of the ten different 30-second intervals (i.e., 30th second, 60th second, etc.); (ii) thereafter, mean values of the arterial blood pressure were calculated at the first seconds of 10th minute, 15th minute, 30th minute, 45th minute, 60th minute, 75th minute, and 90th minute after administration of the respective test or control substance.

## NCC(=O)N[C@@H](CCC(=O)O)C(=O)O [GE, L-Glycyl-L-Glutamic acid] (H-Gly-Glu-OH)
Isolated Rat Heart; 10, 100, 1000 μg
  effect on inotropic function and heart rate of normal heart: neither GE nor VT had a significant effect
Isolated Rat Heart; dose 10 mg (mg = microgram)
  +dp/dtmax % of Basal Level: 102%
  +dp/dtmax Subst. Level: 1750 mm Hg/sec
  -dp/dtmax % of Basal Level: 94%
  -dp/dtmax Subst. Level: 985 mm Hg/sec
  HR % of Basal Level: 99%
  HR abs, Subst. Level: 202 hb/min
  Pdiast % of Basal Level: 95%
  Pdiast abs, Subst. Level: 9 mm Hg
  Pev % of Basal Level: 102%
  Pev Subst. Level: 94 mm Hg
  Psyst % of Basal Level: 102%
  Psyst abs, Subst. Level: 104 mm Hg
Isolated Rat Heart; dose 100 mg (mg = microgram)
  +dp/dtmax % of Basal Level: 100%
  +dp/dtmax Subst. Level: 1723 mm Hg/sec
  -dp/dtmax % of Basal Level: 99%
  -dp/dtmax Subst. Level: 1055 mm Hg/sec
  HR % of Basal Level: 100%
  HR abs, Subst. Level: 203 hb/min
  Pdiast % of Basal Level: 100%
  Pdiast abs, Subst. Level: 11 mm Hg
  Pev % of Basal Level: 99%
  Pev Subst. Level: 88 mm Hg
  Psyst % of Basal Level: 99%
  Psyst abs, Subst. Level: 99 mm Hg
Isolated Rat Heart; dose 1000 mg (mg = microgram)
  +dp/dtmax % of Basal Level: 94%
  +dp/dtmax Subst. Level: 1618 mm Hg/sec
  -dp/dtmax % of Basal Level: 96%
  -dp/dtmax Subst. Level: 980 mm Hg/sec
  HR % of Basal Level: 102%
  HR abs, Subst. Level: 198 hb/min
  Pdiast % of Basal Level: 100%
  Pdiast abs, Subst. Level: 10 mm Hg
  Pev % of Basal Level: 91%
  Pev Subst. Level: 85 mm Hg
  Psyst % of Basal Level: 92%
  Psyst abs, Subst. Level: 94 mm Hg
rats; 0.01 mg/kg i.v., 1 min
  Arterial Blood Pressure (Basal Level = 100.00): 101.02%
rats; 0.01 mg/kg i.v., 2 min
  Arterial Blood Pressure (Basal Level = 100.00): 102.72%
rats; 0.01 mg/kg i.v., 3 min
  Arterial Blood Pressure (Basal Level = 100.00): 103.88%
rats; 0.01 mg/kg i.v., 4 min
  Arterial Blood Pressure (Basal Level = 100.00): 99.77%
rats; 0.01 mg/kg i.v., 5 min
  Arterial Blood Pressure (Basal Level = 100.00): 102.90%
rats; 0.01 mg/kg i.v., 10 min
  Arterial Blood Pressure (Basal Level = 100.00): 96.17%
rats; 0.01 mg/kg i.v., 15 min
  Arterial Blood Pressure (Basal Level = 100.00): 97.01%
rats; 0.01 mg/kg i.v., 30 min
  Arterial Blood Pressure (Basal Level = 100.00): 98.26%
rats; 0.01 mg/kg i.v., 45 min
  Arterial Blood Pressure (Basal Level = 100.00): 99.01%
rats; 0.01 mg/kg i.v., 60 min
  Arterial Blood Pressure (Basal Level = 100.00): 93.29%
rats; 0.01 mg/kg i.v., 75 min
  Arterial Blood Pressure (Basal Level = 100.00): 94.15%
rats; 0.01 mg/kg i.v., 90 min
  Arterial Blood Pressure (Basal Level = 100.00): 102.09%
rats; 0.1 mg/kg i.v., 1 min
  Arterial Blood Pressure (Basal Level = 100.00): 96.00%
rats; 0.1 mg/kg i.v., 2 min
  Arterial Blood Pressure (Basal Level = 100.00): 96.60%
rats; 0.1 mg/kg i.v., 3 min
  Arterial Blood Pressure (Basal Level = 100.00): 97.66%
rats; 0.1 mg/kg i.v., 4 min
  Arterial Blood Pressure (Basal Level = 100.00): 97.32%
rats; 0.1 mg/kg i.v., 5 min
  Arterial Blood Pressure (Basal Level = 100.00): 98.31%
rats; 0.1 mg/kg i.v., 10 min
  Arterial Blood Pressure (Basal Level = 100.00): 96.04%
rats; 0.1 mg/kg i.v., 15 min
  Arterial Blood Pressure (Basal Level = 100.00): 94.98%
rats; 0.1 mg/kg i.v., 30 min
  Arterial Blood Pressure (Basal Level = 100.00): 93.56%
rats; 0.1 mg/kg i.v., 45 min
  Arterial Blood Pressure (Basal Level = 100.00): 80.15%
rats; 0.1 mg/kg i.v., 60 min
  Arterial Blood Pressure (Basal Level = 100.00): 83.03%
rats; 0.1 mg/kg i.v., 75 min
  Arterial Blood Pressure (Basal Level = 100.00): 83.37%
rats; 0.1 mg/kg i.v., 90 min
  Arterial Blood Pressure (Basal Level = 100.00): 84.50%
rats; 1.0 mg/kg i.v., 1 min
  Arterial Blood Pressure (Basal Level = 100.00): 70.32%
rats; 1.0 mg/kg i.v., 2 min
  Arterial Blood Pressure (Basal Level = 100.00): 84.63%
rats; 1.0 mg/kg i.v., 3 min
  Arterial Blood Pressure (Basal Level = 100.00): 90.73%
rats; 1.0 mg/kg i.v., 4 min
  Arterial Blood Pressure (Basal Level = 100.00): 93.72%
rats; 1.0 mg/kg i.v., 5 min
  Arterial Blood Pressure (Basal Level = 100.00): 98.11%
rats; 1.0 mg/kg i.v., 10 min
  Arterial Blood Pressure (Basal Level = 100.00): 94.67%
rats; 1.0 mg/kg i.v., 15 min
  Arterial Blood Pressure (Basal Level = 100.00): 92.70%
rats; 1.0 mg/kg i.v., 30 min
  Arterial Blood Pressure (Basal Level = 100.00): 90.58%
rats; 1.0 mg/kg i.v., 45 min
  Arterial Blood Pressure (Basal Level = 100.00): 88.43%
rats; 1.0 mg/kg i.v., 60 min
  Arterial Blood Pressure (Basal Level = 100.00): 88.85%
rats; 1.0 mg/kg i.v., 75 min
  Arterial Blood Pressure (Basal Level = 100.00): 90.07%
rats; 1.0 mg/kg i.v., 90 min
  Arterial Blood Pressure (Basal Level = 100.00): 89.82%
rats; 10.0 mg/kg i.v., 1 min
  Arterial Blood Pressure (Basal Level = 100.00): 94.68%
rats; 10.0 mg/kg i.v., 2 min
  Arterial Blood Pressure (Basal Level = 100.00): 100.17%
rats; 10.0 mg/kg i.v., 3 min
  Arterial Blood Pressure (Basal Level = 100.00): 101.63%
rats; 10.0 mg/kg i.v., 4 min
  Arterial Blood Pressure (Basal Level = 100.00): 101.22%
rats; 10.0 mg/kg i.v., 5 min
  Arterial Blood Pressure (Basal Level = 100.00): 100.20%
rats; 10.0 mg/kg i.v., 10 min
  Arterial Blood Pressure (Basal Level = 100.00): 95.61%
rats; 10.0 mg/kg i.v., 15 min
  Arterial Blood Pressure (Basal Level = 100.00): 91.27%
rats; 10.0 mg/kg i.v., 30 min
  Arterial Blood Pressure (Basal Level = 100.00): 88.24%
rats; 10.0 mg/kg i.v., 45 min
  Arterial Blood Pressure (Basal Level = 100.00): 89.56%
rats; 10.0 mg/kg i.v., 60 min
  Arterial Blood Pressure (Basal Level = 100.00): 85.99%
rats; 10.0 mg/kg i.v., 75 min
  Arterial Blood Pressure (Basal Level = 100.00): 87.12%
rats; 10.0 mg/kg i.v., 90 min
  Arterial Blood Pressure (Basal Level = 100.00): 78.69%
rats; after about 60 to 90 minutes
  effect on mean arterial blood pressure: moderate, but delayed, decrease in the mean arterial blood pressure
